Data published in ChEMBL document CHEMBL1151899, “Oleanane-type isomeric triterpenoids from Barringtonia racemosa” (J Nat Prod, 2009).

How the values were obtained:
[1] = Cytotoxicity against mouse P388D1 cells by MTT assay; format: functional, cell-based
HeLa = test: Cytotoxicity against human HeLa cells by MTT assay; format: functional, cell-based

Compound `CC1(C)C[C@H]2C3=CC[C@@H]4[C@@]5(C)CC[C@H](O)C(C)(C)[C@@H]5CC[C@@]4(C)[C@]3(C)C[C@@H](O)[C@@]2(CO)[C@@H](O)[C@@H]1O` [BARRINGTOGENOL C] has an IC50 [1] greater than 50 µM and an IC50 (HeLa) greater than 50 µM.

With `CC1(C)CC[C@]2(C(=O)O)CC[C@]3(C)C(=CC[C@@H]4[C@@]5(C)C[C@@H](O)[C@H](O)[C@@](C)(C(=O)O)[C@@H]5CC[C@]43C)[C@@H]2[C@@H]1O` [BARTOGENIC ACID] the IC50 [1] was greater than 50 µM and the IC50 (HeLa) was greater than 50 µM.

`CCC(C)C(=O)O[C@H]1[C@H](OC(C)=O)C(C)(C)C[C@H]2C3=CC[C@@H]4[C@@]5(C)CC[C@H](O)C(C)(C)[C@@H]5CC[C@@]4(C)[C@]3(C)[C@@H](O)[C@@H](O)[C@]21CO` (stereo partly drawn) [ISORACEMOSOL A] gave an IC50 [1] greater than 50 µM and an IC50 (HeLa) greater than 50 µM.

In the case of `CCC(C)C(=O)OC[C@@]12[C@H](O)[C@H](O)[C@]3(C)C(=CC[C@@H]4[C@@]5(C)CC[C@H](O)C(C)(C)[C@@H]5CC[C@]43C)[C@@H]1CC(C)(C)[C@@H](O)[C@@H]2OC(C)=O` (stereo partly drawn) [RACEMOSOL A], the IC50 [1] is reported as greater than 50 µM and the IC50 (HeLa) is reported as greater than 50 µM.

For `CC[C@H](/C=C/[C@@H](C)[C@H]1CC[C@H]2[C@@H]3CC=C4C[C@@H](O)CC[C@]4(C)[C@H]3CC[C@]12C)C(C)C` [STIGMASTEROL], the IC50 [1] was greater than 50 µM and the IC50 (HeLa) was greater than 50 µM.
